ChEMBL document CHEMBL4507274 (2021)

Experiments:
[1] = test system: Tyrosine-protein kinase ABL1 (Homo sapiens), P00519 [F317L]; conditions: Compound concentration 100.0 nM
[2] = molecular target: Activin receptor type-1B (Homo sapiens) (UniProt P36896); conditions: Compound concentration 100.0 nM
[3] = test system: ALK tyrosine kinase receptor (Homo sapiens), Q9UM73 [L1196M]; conditions: Compound concentration 100.0 nM
[4] = molecular target: Mitogen-activated protein kinase kinase kinase 6 (Homo sapiens) (UniProt O95382); conditions: Compound concentration 100.0 nM
[5] = molecular target: Aurora kinase B (Homo sapiens) (UniProt Q96GD4); conditions: Compound concentration 100.0 nM
[6] = molecular target: Bone morphogenetic protein receptor type-2 (Homo sapiens) (UniProt Q13873); conditions: Compound concentration 100.0 nM
[7] = molecular target: Serine/threonine-protein kinase BRSK2 (Homo sapiens) (UniProt Q8IWQ3); conditions: Compound concentration 100.0 nM
[8] = molecular target: Calcium/calmodulin-dependent protein kinase type 1 (Homo sapiens) (UniProt Q14012); conditions: Compound concentration 100.0 nM
[9] = molecular target: Cyclin-dependent kinase 2 (Homo sapiens) (UniProt P24941); conditions: Compound concentration 100.0 nM
[10] = molecular target: Cyclin-dependent kinase 7 (Homo sapiens) (UniProt P50613); conditions: Compound concentration 100.0 nM
[11] = molecular target: Citron Rho-interacting kinase (Homo sapiens) (UniProt O14578); conditions: Compound concentration 100.0 nM
[12] = molecular target: Ephrin type-A receptor 1 (Homo sapiens) (UniProt P21709); conditions: Compound concentration 100.0 nM
[13] = molecular target: Ephrin type-A receptor 4 (Homo sapiens) (UniProt P54764); conditions: Compound concentration 100.0 nM
[14] = molecular target: Mitogen-activated protein kinase 3 (Homo sapiens) (UniProt P27361); conditions: Compound concentration 100.0 nM
[15] = molecular target: Mitogen-activated protein kinase 1 (Homo sapiens) (UniProt P28482); conditions: Compound concentration 100.0 nM
[16] = test system: Receptor-type tyrosine-protein kinase FLT3 (Homo sapiens), P36888 [UNDEFINED MUTATION]; conditions: Compound concentration 100.0 nM
[17] = molecular target: Hormonally up-regulated neu tumor-associated kinase (Homo sapiens) (UniProt P57058); conditions: Compound concentration 100.0 nM
[18] = molecular target: LIM domain kinase 2 (Homo sapiens) (UniProt P53671); conditions: Compound concentration 100.0 nM
[19] = molecular target: Leukocyte tyrosine kinase receptor (Homo sapiens) (UniProt P29376); conditions: Compound concentration 100.0 nM
[20] = molecular target: Mitogen-activated protein kinase kinase kinase 3 (Homo sapiens) (UniProt Q99759); conditions: Compound concentration 100.0 nM
[21] = molecular target: Dual specificity mitogen-activated protein kinase kinase 5 (Homo sapiens) (UniProt Q13163); conditions: Compound concentration 100.0 nM
[22] = molecular target: T1, Serine/threonine-protein kinase 3 (Homo sapiens) (UniProt Q13188); conditions: Compound concentration 100.0 nM
T1 sequence (whole entry): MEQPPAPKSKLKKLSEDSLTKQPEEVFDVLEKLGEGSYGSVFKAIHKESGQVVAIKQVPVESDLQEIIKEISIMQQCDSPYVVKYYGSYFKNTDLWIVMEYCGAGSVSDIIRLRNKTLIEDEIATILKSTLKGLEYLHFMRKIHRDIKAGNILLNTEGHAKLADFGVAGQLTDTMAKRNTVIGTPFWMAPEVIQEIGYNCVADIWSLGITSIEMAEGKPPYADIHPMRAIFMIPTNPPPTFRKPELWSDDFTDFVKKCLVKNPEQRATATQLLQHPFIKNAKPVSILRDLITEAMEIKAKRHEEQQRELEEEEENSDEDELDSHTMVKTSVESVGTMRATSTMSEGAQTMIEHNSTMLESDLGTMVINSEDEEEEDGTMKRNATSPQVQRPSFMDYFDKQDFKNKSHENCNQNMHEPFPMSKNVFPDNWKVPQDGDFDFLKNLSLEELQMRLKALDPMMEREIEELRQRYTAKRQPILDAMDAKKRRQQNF

[23] = test system: Phosphatidylinositol 4,5-bisphosphate 3-kinase catalytic subunit alpha isoform (Homo sapiens), P42336 [H1047L]; conditions: Compound concentration 100.0 nM
[24] = molecular target: RAF proto-oncogene serine/threonine-protein kinase (Homo sapiens) (UniProt P04049); conditions: Compound concentration 100.0 nM
[25] = molecular target: Proto-oncogene tyrosine-protein kinase ROS (Homo sapiens) (UniProt P08922); conditions: Compound concentration 100.0 nM
[26] = molecular target: Ribosomal protein S6 kinase alpha-6 (Homo sapiens) (UniProt Q9UK32); conditions: Compound concentration 100.0 nM
[27] = molecular target: Serine/threonine-protein kinase SIK2 (Homo sapiens) (UniProt Q9H0K1); conditions: Compound concentration 100.0 nM
[28] = molecular target: Serine/threonine-protein kinase TAO1 (Homo sapiens) (UniProt Q7L7X3); conditions: Compound concentration 100.0 nM
[29] = molecular target: Tyrosine-protein kinase receptor Tie-1 (Homo sapiens) (UniProt P35590); conditions: Compound concentration 100.0 nM
[30] = molecular target: Testis-specific serine/threonine-protein kinase 1 (Homo sapiens) (UniProt Q9BXA7); conditions: Compound concentration 100.0 nM
[31] = molecular target: Non-receptor tyrosine-protein kinase TYK2 (Homo sapiens) (UniProt P29597); conditions: Compound concentration 100.0 nM
[32] = molecular target: Phosphatidylinositol 3-kinase catalytic subunit type 3 (Homo sapiens) (UniProt Q8NEB9); conditions: Compound concentration 100.0 nM
[33] = molecular target: Serine/threonine-protein kinase WNK1 (Homo sapiens) (UniProt Q9H4A3); conditions: Compound concentration 100.0 nM
[34] = molecular target: Serine/threonine-protein kinase 25 (Homo sapiens) (UniProt O00506); conditions: Compound concentration 100.0 nM
[35] = molecular target: 5-hydroxytryptamine receptor 2C (Homo sapiens) (UniProt P28335); conditions: Compound concentration 10.0 uM
[36] = molecular target: Delta-type opioid receptor (Homo sapiens) (UniProt P41143); conditions: Compound concentration 10.0 uM
[37] = molecular target: Histamine H3 receptor (Homo sapiens) (UniProt Q9Y5N1); conditions: Compound concentration 10.0 uM
[38] = molecular target: Histamine H4 receptor (Homo sapiens) (UniProt Q9H3N8); conditions: Compound concentration 10.0 uM
[39] = molecular target: Beta-3 adrenergic receptor (Homo sapiens) (UniProt P13945); conditions: Compound concentration 10.0 uM

Sequence of Ribosomal protein S6 kinase alpha-6 (Homo sapiens) (Q9UK32 whole entry): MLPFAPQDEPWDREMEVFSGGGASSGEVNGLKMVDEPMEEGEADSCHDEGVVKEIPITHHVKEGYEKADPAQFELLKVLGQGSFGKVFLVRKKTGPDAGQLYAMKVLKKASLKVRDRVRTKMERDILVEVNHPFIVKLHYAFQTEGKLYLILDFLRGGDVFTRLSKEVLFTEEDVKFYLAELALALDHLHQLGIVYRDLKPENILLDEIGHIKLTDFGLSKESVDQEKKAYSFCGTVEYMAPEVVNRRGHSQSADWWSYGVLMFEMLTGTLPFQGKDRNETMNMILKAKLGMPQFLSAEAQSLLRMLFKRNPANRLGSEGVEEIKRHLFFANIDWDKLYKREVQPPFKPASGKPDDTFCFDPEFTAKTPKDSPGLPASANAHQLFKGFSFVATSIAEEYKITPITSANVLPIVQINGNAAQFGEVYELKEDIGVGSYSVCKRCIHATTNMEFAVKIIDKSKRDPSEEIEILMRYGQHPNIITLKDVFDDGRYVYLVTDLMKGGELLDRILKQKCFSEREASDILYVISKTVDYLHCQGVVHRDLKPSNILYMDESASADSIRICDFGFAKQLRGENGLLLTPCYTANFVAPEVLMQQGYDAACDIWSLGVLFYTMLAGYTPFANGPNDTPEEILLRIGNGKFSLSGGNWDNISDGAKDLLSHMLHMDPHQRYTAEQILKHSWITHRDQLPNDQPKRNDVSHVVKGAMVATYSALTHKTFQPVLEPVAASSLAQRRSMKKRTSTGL
Sequence of Tyrosine-protein kinase ABL1 (Homo sapiens), P00519 [F317L] (P00519 whole entry F317L): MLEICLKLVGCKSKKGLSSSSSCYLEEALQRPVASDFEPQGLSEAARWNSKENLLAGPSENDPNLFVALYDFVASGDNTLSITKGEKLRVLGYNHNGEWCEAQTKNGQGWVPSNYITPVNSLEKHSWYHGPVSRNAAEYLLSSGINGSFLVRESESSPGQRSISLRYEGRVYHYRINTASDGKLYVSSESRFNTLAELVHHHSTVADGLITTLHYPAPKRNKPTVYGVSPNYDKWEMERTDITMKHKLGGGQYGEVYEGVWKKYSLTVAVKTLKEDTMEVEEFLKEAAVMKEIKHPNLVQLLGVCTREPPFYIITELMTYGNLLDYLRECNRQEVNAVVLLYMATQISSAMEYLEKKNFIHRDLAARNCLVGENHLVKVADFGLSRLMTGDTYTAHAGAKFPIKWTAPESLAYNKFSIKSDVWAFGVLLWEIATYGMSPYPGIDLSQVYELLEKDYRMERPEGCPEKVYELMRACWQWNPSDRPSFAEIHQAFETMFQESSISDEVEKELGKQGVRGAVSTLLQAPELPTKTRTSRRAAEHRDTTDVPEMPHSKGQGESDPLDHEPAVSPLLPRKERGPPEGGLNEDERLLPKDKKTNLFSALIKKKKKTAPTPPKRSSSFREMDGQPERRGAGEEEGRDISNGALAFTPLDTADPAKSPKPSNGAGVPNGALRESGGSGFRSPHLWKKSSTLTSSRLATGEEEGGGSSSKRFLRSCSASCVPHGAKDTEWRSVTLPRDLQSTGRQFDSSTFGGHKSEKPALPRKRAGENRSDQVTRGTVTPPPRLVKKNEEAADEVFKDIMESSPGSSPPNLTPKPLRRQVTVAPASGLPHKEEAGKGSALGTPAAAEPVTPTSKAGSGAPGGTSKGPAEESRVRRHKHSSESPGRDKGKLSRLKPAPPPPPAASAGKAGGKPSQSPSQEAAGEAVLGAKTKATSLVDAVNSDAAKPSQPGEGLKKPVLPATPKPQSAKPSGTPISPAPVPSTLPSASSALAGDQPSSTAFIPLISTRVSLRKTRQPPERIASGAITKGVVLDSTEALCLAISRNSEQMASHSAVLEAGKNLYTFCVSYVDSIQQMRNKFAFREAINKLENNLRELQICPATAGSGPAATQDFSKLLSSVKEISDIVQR
Sequence of Mitogen-activated protein kinase kinase kinase 6 (Homo sapiens) (O95382 whole entry): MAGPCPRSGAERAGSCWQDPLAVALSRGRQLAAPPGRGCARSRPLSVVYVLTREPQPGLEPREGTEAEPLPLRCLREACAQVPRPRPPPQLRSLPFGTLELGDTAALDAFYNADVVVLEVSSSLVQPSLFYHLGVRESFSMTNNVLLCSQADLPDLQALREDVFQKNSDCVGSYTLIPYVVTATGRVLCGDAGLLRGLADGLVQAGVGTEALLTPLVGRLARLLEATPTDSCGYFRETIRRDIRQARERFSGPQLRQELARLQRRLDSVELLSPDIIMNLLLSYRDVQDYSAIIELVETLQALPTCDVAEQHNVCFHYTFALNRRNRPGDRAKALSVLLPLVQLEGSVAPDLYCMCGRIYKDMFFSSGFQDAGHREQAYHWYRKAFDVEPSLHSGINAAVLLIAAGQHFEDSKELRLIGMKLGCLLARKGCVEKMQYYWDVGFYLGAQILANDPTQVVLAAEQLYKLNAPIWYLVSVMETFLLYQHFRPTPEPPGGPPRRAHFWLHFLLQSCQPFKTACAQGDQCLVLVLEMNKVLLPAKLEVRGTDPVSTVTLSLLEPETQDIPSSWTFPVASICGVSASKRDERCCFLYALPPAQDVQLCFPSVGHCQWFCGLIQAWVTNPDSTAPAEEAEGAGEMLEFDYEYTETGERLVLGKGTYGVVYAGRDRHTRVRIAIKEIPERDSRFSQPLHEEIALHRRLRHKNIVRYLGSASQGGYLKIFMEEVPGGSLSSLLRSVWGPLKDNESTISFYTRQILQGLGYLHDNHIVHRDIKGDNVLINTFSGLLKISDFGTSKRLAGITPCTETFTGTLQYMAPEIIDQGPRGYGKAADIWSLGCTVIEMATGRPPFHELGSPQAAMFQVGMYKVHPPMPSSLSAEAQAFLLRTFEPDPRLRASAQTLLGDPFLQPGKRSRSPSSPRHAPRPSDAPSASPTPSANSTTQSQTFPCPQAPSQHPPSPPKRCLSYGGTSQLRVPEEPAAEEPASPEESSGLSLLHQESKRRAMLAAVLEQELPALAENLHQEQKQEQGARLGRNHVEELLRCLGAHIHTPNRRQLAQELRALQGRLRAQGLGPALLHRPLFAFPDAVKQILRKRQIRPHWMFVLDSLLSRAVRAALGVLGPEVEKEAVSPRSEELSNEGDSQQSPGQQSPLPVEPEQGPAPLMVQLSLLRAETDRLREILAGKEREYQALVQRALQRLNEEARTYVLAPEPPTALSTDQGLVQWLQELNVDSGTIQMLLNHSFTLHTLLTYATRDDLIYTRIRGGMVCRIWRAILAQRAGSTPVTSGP
Sequence of Serine/threonine-protein kinase TAO1 (Homo sapiens) (Q7L7X3 whole entry): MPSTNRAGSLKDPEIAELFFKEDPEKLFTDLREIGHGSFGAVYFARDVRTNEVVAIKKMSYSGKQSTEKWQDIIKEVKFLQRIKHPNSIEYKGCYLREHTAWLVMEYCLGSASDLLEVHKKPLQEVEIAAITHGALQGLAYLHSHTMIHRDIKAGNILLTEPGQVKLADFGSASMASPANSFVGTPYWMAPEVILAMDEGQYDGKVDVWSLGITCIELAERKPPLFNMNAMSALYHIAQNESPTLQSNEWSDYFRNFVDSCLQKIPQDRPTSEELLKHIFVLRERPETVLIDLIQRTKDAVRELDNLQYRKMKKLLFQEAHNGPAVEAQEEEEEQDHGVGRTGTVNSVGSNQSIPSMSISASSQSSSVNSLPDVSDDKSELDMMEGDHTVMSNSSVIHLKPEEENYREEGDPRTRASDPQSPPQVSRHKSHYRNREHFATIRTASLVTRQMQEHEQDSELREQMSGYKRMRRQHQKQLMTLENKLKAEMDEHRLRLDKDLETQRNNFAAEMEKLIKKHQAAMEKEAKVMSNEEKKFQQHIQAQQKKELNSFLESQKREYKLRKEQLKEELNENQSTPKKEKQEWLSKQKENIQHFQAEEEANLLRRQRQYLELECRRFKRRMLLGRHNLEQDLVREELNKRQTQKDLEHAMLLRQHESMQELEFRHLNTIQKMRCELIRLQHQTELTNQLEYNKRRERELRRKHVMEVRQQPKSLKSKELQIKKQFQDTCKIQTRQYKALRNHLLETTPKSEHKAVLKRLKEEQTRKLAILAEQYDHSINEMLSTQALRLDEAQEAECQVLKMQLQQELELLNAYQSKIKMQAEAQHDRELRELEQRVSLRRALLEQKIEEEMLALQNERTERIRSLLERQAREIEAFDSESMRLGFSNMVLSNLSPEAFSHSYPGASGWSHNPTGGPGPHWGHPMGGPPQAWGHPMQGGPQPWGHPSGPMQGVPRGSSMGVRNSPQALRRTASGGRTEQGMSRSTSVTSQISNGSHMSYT
Sequence of RAF proto-oncogene serine/threonine-protein kinase (Homo sapiens) (P04049 whole entry): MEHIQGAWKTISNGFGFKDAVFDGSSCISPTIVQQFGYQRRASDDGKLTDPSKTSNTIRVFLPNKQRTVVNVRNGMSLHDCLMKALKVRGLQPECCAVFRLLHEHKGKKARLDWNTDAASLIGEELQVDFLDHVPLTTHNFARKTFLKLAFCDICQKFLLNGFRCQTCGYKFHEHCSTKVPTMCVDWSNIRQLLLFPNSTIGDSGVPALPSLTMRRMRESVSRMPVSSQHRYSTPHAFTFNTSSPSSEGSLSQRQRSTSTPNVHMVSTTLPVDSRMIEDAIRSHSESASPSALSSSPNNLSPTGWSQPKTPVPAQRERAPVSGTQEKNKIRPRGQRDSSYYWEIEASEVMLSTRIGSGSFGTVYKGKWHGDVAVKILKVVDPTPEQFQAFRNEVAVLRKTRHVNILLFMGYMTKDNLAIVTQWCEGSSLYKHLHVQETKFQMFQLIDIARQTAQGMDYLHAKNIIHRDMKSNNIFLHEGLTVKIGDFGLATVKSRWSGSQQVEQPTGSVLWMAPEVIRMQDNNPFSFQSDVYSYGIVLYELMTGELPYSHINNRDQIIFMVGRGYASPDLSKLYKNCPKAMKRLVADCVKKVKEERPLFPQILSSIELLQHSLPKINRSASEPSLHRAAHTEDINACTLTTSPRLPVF

Cn1cc(Cl)c2c(Oc3c(F)cc(Nc4cc(Cl)nc(N)n4)cc3F)ccnc21 [BAY-4900]
inactive: residual activity [1] 74% | residual activity [2] 98% | residual activity [3] 100% | residual activity [4] 100% | residual activity [5] 78% | residual activity [6] 100% | residual activity [7] 100% | residual activity [8] 100% | residual activity [9] 100% | residual activity [10] 100% | residual activity [11] 100% | residual activity [12] 100% | residual activity [13] 100% | residual activity [14] 98% | residual activity [15] 100% | residual activity [16] 79% | residual activity [17] 100% | residual activity [18] 100% | residual activity [19] 87% | residual activity [20] 90% | residual activity [21] 100% | residual activity [22] 92% | residual activity [23] 83% | residual activity [24] 91% | residual activity [25] 100% | residual activity [26] 72% | residual activity [27] 100% | residual activity [28] 97% | residual activity [29] 100% | residual activity [30] 100% | residual activity [31] 81% | residual activity [32] 75% | residual activity [33] 98% | residual activity [34] 100% | inhibition [35] 2.72% | inhibition [36] -5.39% | inhibition [37] 31% | inhibition [38] -9.04% | inhibition [39] 3.48%

Cc1c[nH]c2nccc(Oc3c(F)cc(Nc4cc(Cl)nc(N)n4)cc3F)c12 [BAY-549]
inactive: residual activity [1] 74% | residual activity [2] 87% | residual activity [3] 99% | residual activity [4] 100% | residual activity [5] 82% | residual activity [6] 95% | residual activity [7] 92% | residual activity [8] 92% | residual activity [9] 99% | residual activity [10] 91% | residual activity [11] 100% | residual activity [12] 100% | residual activity [13] 100% | residual activity [14] 90% | residual activity [15] 99% | residual activity [16] 87% | residual activity [17] 100% | residual activity [18] 79% | residual activity [19] 99% | residual activity [20] 99% | residual activity [21] 82% | residual activity [22] 69% | residual activity [23] 81% | residual activity [24] 75% | residual activity [25] 96% | residual activity [26] 95% | residual activity [27] 100% | residual activity [28] 84% | residual activity [29] 94% | residual activity [30] 95% | residual activity [31] 78% | residual activity [32] 67% | residual activity [33] 90% | residual activity [34] 100% | inhibition [35] 22.1% | inhibition [36] 7.96% | inhibition [37] 8.13% | inhibition [38] -8.74% | inhibition [39] 22%
